In US7622472B2, “Combination of Src kinase inhibitors and chemotherapeutic agents for the treatment of proliferative diseases” (priority 2003, dated 2009):

How the values were obtained:
[1] = test system: PC3 human prostate carcinoma xenografts; test: In vivo antitumor testing, PC3 human prostate carcinoma xenografts in nude mice; settings: single agent compound 1, 10 mpk, orally, twice-a-day, 5-day-on, 2-day-off, 14 days
Text: Tumors were propagated as subcutaneous transplants using tumor fragments obtained from donor mice.
For treatment of early-stage tumors, the animals were again pooled before distribution to the various treatment and control groups. For treatment of animals with advanced-stage disease, tumors were allowed to grow to the pre-determined size window (tumors outside the range were excluded) and animals were evenly distributed to various treatment and control groups. Treatment of each animal was based on individual body weight. Treated animals were checked daily for treatment related toxicity/mortality. Each group of animals was weighed before the initiation of treatment (Wt1) and then again following the last treatment dose (Wt2). The difference in body weight (Wt2−Wt1) provides a measure of treatment-related toxicity. Tumor response was determined by measurement of tumors with a caliper twice a week, until the tumors reach a predetermined “target” size of 1 gm. Tumor weights (mg) were estimated from the formula: Tumor weight=(length×width2)÷2 Antitumor activity was evaluated at the maximum tolerated dose (MTD) which is defined as the dose level immediately below which excessive toxicity (i.e. more than one death) occurred. […] When death occurs, the day of death was recorded.

[2] = test system: Src family kinases (SFKs, including: Fyn, Yes, Yrk, Blk, Fgr, Hck, Lyn, and Frk subfamily members Frk/Rak and Iyk/Bsk); test: Inhibition of Src family kinases (statement, no method); type: biochemical; settings: competes with ATP for the ATP-binding site in the kinase domain

Cc1nc(Nc2ncc(C(=O)Nc3c(C)cccc3Cl)s2)cc(N2CCN(CCO)CC2)n1 [Compound 1, ′N-(2-Chloro-6-methylphenyl)-2-[[6-[4-(2-hydroxyethyl)-1-piperazinyl]-2-methyl-4-pyrimidinyl]amino]-5-thiazolecarboxamide]
growth delay (T-C) [1]: 4.5 days
tumor growth inhibition (% T/C) [1]: 58%
inhibition of Src family kinases [2]: potently inhibits
